Laboratory results reported in article PMC7480271, “A molecular-logic gate for COX-2 and NAT based on conformational and structural changes: visualizing the progression of liver disease” (Chemical Science, 2020).

Target: NAT (N-acetyltransferase)
Test: Kd measurement (Fig. S8, method not shown); fluorescence titration and 1H NMR of acetylation by NAT

Kd: 2.23 µM
SMILES: COc1ccc2c(c1)c(CC(=O)NCCCCN1C(=O)c3cccc4cc(N)cc(c34)C1=O)c(C)n2C(=O)c1ccc(Cl)cc1 [3IAN4]
